# Experiments:
# Assay type in all cases: cell-based
# [1] = test system: Rhizopus oryzae JCM14625 strain (=NBRC 5384); experiment: LDH activity evaluation-1: mycelia prepared from spores in surfactant-supplemented PDB medium, LDH activity of fungus body extract
# Experimental: A loopful of a cryopreserved spore suspension sample (−80° C.) of a Rhizopus oryzae JCM14625 strain (=NBRC 5384) obtained from a culture collection Riken BioResource Center (BRC) was inoculated to a PDA medium (Difco Potato Dextrose Agar, manufactured by Becton, Dickinson and Company) and then statically cultured at 30° C. for from 7 to 10 days. After visual confirmation of hyphal growth and blackening at the ends of hyphae associated with sporulation, from 30 to 40 mL of saline was added thereto. Spores, together with hyphae, were collected into a 50-mL centrifugal tube with a lid (manufactured by Greiner bio-one) using a platinum loop and then vigorously mixed in the tube. The spore suspension thus mixed was filtered through 3GP100 cylindrical funnel-shaped glass filter (manufactured by Shibata Scientific Technology Ltd.). The resulting filtrate was used as a spore solution. The number of spores in the spore solution was measured using a hemocytometer (D=1/50 mm· 1/400 mm^2) after appropriate dilution with saline.
# 80 mL of a PDB medium non-supplemented or supplemented with 0.5% (w/v) (final concentration) of each surfactant described below was applied to a 200-mL baffled Erlenmeyer flask (manufactured by Asahi Glass Co., Ltd.). The Rhizopus oryzae spore suspension prepared in Production Example 1 was inoculated thereto at a dose of 1×10^3 spores/mL of the medium and then cultured at 27° C. for 3 days with stirring at 170 rpm. Since mycelia would remain on the filter, the cultures were filtered through a stainless sieve of 250 μm in mesh size (manufactured by AS ONE Corp.) sterilized in advance to recover fungus bodies onto the filter.
# From3.0 to 4.0 g (wet weight) of the recovered fungus bodies was inoculated to 100 mL of an inorganic culture medium (composition: 10% glucose, 0.1% ammonium sulfate, 0.06% potassium dihydrogen phosphate, 0.025% magnesium sulfate heptahydrate, 0.009% zinc sulfate heptahydrate, and 5.0% calcium carbonate; all the concentrations mean % (w/v)) applied to a 500-mL Erlenmeyer flask, and then cultured at 27° C. for approximately 40 hours with stirring at 220 rpm. Subsequently, the cultures thus obtained by culture in the inorganic culture medium were filtered using a stainless screen filter holder (manufactured by EMD Millipore) sterilized in advance to recover fungus bodies onto the filter. On this filter holder, the fungus bodies were further washed with 100 mL of saline. The saline used in washing was removed by suction filtration. The obtained fungus bodies were used in the following LDH activity evaluation and evaluation of the ability to fermentatively produce lactic acid.
# 6.0 g of the wet fungus bodies of the genus Rhizopus obtained in Production Example 3 was inoculated to 40 mL of an inorganic culture medium for lactic acid production evaluation (composition: 8.0% glucose, 0.1% ammonium sulfate, 0.06% potassium dihydrogen phosphate, 0.025% magnesium sulfate heptahydrate, 0.009% zinc sulfate heptahydrate, and 5.0% calcium carbonate; all the concentrations mean % (w/v)) applied to a 200-mL Erlenmeyer flask, and then cultured at 35° C. with stirring at 170 rpm. After 4.5-hour culture of the fungus bodies of the genus Rhizopus with stirring, the fungus bodies were filtered using a stainless screen filter holder (manufactured by EMD Millipore) sterilized in advance to recover fungus bodies onto the filter. On this filter holder, the fungus bodies were further washed with 100 mL of saline. The saline used in washing was removed by suction filtration. 0.3 g of the obtained fungus bodies was recovered into a 3-mL disruption tube (manufactured by Yasui Kikai Corp.). Metal cone for 3 mL (manufactured by Yasui Kikai Corp.) was added to the tube, which was then capped and then frozen in liquid nitrogen. The frozen 3-mL disruption tube was applied to Multi-Beads Shocker (manufactured by Yasui Kikai Corp.). The fungus bodies were disrupted at 1700 rpm for 10 seconds.
# [2] = test system: Rhizopus oryzae NBRC 4707; experiment: Evaluation of ability to produce lactic acid-2, strain NBRC 4707; conditions: 0.5% (w/v) at spore germination, control of the strain without surfactant = 100
# Experimental: (§1) (1) Spore suspensions were prepared in the same way as in Production Example 1 using Rhizopus oryzae NBRC 4707, NBRC 4785, NBRC 5384 (=JCM14625), and NBRC 5418 strains obtained from a culture collection NBRC.
# (§2) (2) Mycelia were prepared from the spores of each strain under the same conditions as in Production Example 2 involving stirring at 100 rpm using 60 mL of a PDB medium non-supplemented or supplemented with 0.5% (w/v) (final concentration) of the surfactant sorbitan monolaurate (Rheodol(R) SP-L10, manufactured by Kao Corp.).
# (§3) (3) The total amount of the fungus bodies obtained in (2) was inoculated to 100 mL of an inorganic culture medium under the same conditions as in Production Example 3 to grow the mycelia. […]
# (§4) 30 g of the prepared wet fungus bodies of each strain of the genus Rhizopus was inoculated to 100 mL of an inorganic culture medium for lactic acid production evaluation (composition: 12.5% glucose, 0.1% ammonium sulfate, 0.06% potassium dihydrogen phosphate, 0.025% magnesium sulfate heptahydrate, 0.009% zinc sulfate heptahydrate, and 6.25% calcium carbonate; all the concentrations mean % (w/v)) applied to a 500-mL Erlenmeyer flask, and then cultured at 33.5° C. with stirring at 170 rpm. The production rate of lactic acid was determined by the same procedures as in Test Example 2. […]
# [3] = test system: Rhizopus oryzae NBRC 5418; experiment: Evaluation of ability to produce lactic acid-2, strain NBRC 5418; conditions: 0.5% (w/v) at spore germination, control of the strain without surfactant = 100
# Experimental: as §1, §2, §3, §4
substance,measurement,setting,value
Sorbitan monolaurate,LDH activity compared with control fungus bodies (in words),"[1]; 0.5% (w/v) surfactant at spore germination, versus medium non-supplemented with the surfactant",higher LDH activity
same,LDH activity (relative value),"[1]; 0.5% (w/v) surfactant in PDB medium at spore germination, LDH activity in the absence of the surfactant = 100",267 relative value
same,Production rate of lactic acid (relative value),[2],135 relative value
same,Production rate of lactic acid (relative value),[3],135 relative value

# — patent publication US20150125915A1, “Method for Producing Lactic Acid” (Kao Corporation, priority 2012, published 2015)
